Our source for the IC50 values is patent publication US12492188B2, “1H-benzo[D]imidazole derivatives as TLR9 inhibitors for the treatment of fibrosis” (BRISTOL-MYERS SQUIBB COMPANY, priority 2020, dated 2025).

For orientation: IC50 means the midpoint of a concentration-inhibition curve.

SMILES strings stand for the structures. Where two headings read alike, the source gives them in different places.

This assay has as its target T1, human TLR9 (Homo sapiens, UniProt Q9NR96).
T1 construct: host or cells: HEK-Blue cells (HEK293-derived reporter line)
T1 sequence (Q9NR96 26-1032): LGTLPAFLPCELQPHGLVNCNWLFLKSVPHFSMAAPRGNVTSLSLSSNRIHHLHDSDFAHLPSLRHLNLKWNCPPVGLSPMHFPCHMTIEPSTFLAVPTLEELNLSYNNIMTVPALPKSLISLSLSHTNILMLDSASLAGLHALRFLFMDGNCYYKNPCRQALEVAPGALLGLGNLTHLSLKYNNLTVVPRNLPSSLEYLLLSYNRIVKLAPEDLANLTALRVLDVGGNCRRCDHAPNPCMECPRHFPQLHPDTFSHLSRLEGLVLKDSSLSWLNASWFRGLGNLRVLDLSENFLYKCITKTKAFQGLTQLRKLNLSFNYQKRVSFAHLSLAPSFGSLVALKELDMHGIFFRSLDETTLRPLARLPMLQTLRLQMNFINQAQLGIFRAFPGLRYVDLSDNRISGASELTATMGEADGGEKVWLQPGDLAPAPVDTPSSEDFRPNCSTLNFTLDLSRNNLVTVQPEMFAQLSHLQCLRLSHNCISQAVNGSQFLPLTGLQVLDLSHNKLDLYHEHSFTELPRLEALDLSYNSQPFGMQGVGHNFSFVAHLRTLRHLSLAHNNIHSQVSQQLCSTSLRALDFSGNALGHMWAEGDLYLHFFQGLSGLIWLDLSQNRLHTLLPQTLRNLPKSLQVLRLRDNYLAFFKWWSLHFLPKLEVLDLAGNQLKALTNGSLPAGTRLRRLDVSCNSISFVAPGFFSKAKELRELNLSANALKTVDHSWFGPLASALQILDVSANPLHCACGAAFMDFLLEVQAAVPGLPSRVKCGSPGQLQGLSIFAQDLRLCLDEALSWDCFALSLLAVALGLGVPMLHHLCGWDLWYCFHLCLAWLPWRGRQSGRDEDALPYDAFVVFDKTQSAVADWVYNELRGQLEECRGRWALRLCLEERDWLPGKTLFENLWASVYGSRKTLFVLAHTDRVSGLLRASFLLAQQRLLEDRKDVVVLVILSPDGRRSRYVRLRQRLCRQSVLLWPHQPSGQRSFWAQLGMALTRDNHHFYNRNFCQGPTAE
The experiment in a line: TLR9 inhibition reporter assay (HEK-Blue cells, secreted embryonic alkaline phosphatase reporter). The assay is classed as cell-based. How it is done:
TLR7/8/9 Inhibition Reporter Assays
HEK-Blue™-cells (Invivogen) overexpressing human TLR7, TLR8 or TLR9 receptors were used for screening inhibitors of these receptors using an inducible SLAP (secreted embryonic alkaline phosphatase) reporter gene under the control of the […] minimal promoter fused to five NF-κB and AP-1-binding sites. Briefly, cells are seeded into Greiner 384 well plates (15000 cells per well for TLR7, 20,000 for TLR8 and 25,000 for TLR9) and then treated with test compounds in DMSO to yield a final dose response concentration range of 0.05 nM-50 μM. After a 30 minute compound pre-treatment at room temperature, the cells are then stimulated with a TLR7 ligand (gardiquimod at a final concentration of 7.5 μM), TLR8 ligand (R848 at a final concentration of 15.9 μM) or TLR9 ligand (ODN2006 at a final concentration of 5 nM) to activate NF-κB and AP-1 which induce the production of SLAP. After a 22 hour incubation at 37° C., […], SLAP levels are determined with the addition of HEK-Blue™ Detection reagent (Invivogen), a cell culture medium that allows for detection of SLAP, according to manufacturer's specifications. The percent inhibition is determined as the […] in the HEK-Blue signal present in wells treated with agonist plus DMSO alone compared to wells treated with a known inhibitor.

Where [1] appears, read: HEK-Blue cells overexpressing human TLR9, stimulated with ODN2006 5 nM, 22 hour incubation, reporter readout.
[2] abbreviates: HEK-Blue cells overexpressing human TLR9, stimulated with ODN2006 5 nM, read-out: TLR 9 IC50.

With `Cc1cc(C2CCN(C3CCN(CC(C)C)CC3)CC2)cc2[nH]c(-c3ccc4cnccc4c3)nc12` [Example 74, 6-(6-(1′-isobutyl-[1,4′-bipiperidin]-4-yl)-4-methyl-1H-benzo[d]imidazol-2-yl)isoquinoline], the IC50 is, setting by setting: under setting [1], 0.037 µM; under setting [2], 0.037 µM.
As to `Cc1cc(C2CCN(C3CCN(CC(C)C)CC3)CC2)cc2[nH]c(-c3ccc(S(=O)(=O)c4ccccc4)cc3)nc12` [Example 75, 6-(1′-isobutyl-[1,4′-bipiperidin]-4-yl)-4-methyl-2-(4-(phenylsulfonyl)phenyl)-1H-benzo[d]imidazole tris(2,2,2-trifluoroacetate)], the IC50 was 0.063 µM under setting [1] and 0.063 µM under setting [2].
In the case of `Cc1cc(C2CCN(C3CCN(CC(C)C)CC3)CC2)cc2[nH]c(-c3cccc(OC(F)F)c3)nc12` [Example 76, 2-(3-(difluoromethoxy)phenyl)-6-(1′-isobutyl-[1,4′-bipiperidin]-4-yl)-4-methyl-1H-benzo[d]imidazole], the IC50 under setting [1] turned out to be 0.26 µM and the IC50 under setting [2] came out at 0.257 µM.
For `Cc1cc(C2CCN(C3CCN(CC(C)C)CC3)CC2)cc2[nH]c(-c3cccc4ncsc34)nc12` [Example 77, 7-(6-(1′-isobutyl-[1,4′-bipiperidin]-4-yl)-4-methyl-1H-benzo[d]imidazol-2-yl)benzo[d]thiazole], the IC50 reads like this: under setting [1], 0.031 µM; under setting [2], 0.031 µM.
Take `Cc1cc(C2CCN(C3CCN(CC(C)C)CC3)CC2)cc2[nH]c(-c3ccc(OC(F)F)cc3)nc12` [Example 78, 2-(4-(difluoromethoxy)phenyl)-6-(1′-isobutyl-[1,4′-bipiperidin]-4-yl)-4-methyl-1H-benzo[d]imidazole]: the midpoint of inhibition under setting [1], the IC50, lay at 0.27 µM and the IC50 under setting [2] worked out at 0.267 µM.
In the case of `Cc1cc(C2CCN(C3CCN(CC(C)C)CC3)CC2)cc2[nH]c(-c3nccs3)nc12` [Example 79, 2-(6-(1′-isobutyl-[1,4′-bipiperidin]-4-yl)-4-methyl-1H-benzo[d]imidazol-2-yl)thiazole], the IC50 was 0.11 µM under setting [1] and 0.111 µM under setting [2].
Consider `Cc1cc(C2CCN(C3CCN(CC(C)C)CC3)CC2)cc2[nH]c(-c3ccccc3OC(F)(F)F)nc12` [Example 80, 6-(1′-isobutyl-[1,4′-bipiperidin]-4-yl)-4-methyl-2-(2-(trifluoromethoxy)phenyl)-1H-benzo[d]imidazole tris(2,2,2-trifluoroacetate)], for which the midpoint of inhibition under setting [1], the IC50, lay at 0.36 µM and the IC50 under setting [2] worked out at 0.358 µM.
The like results for `Cc1cc(C2CCN(C3CCN(CC(C)C)CC3)CC2)cc2[nH]c(-c3cnc4[nH]ccc4c3)nc12` [Example 81, 6-(1′-isobutyl-[1,4′-bipiperidin]-4-yl)-4-methyl-2-(1H-pyrrolo[2,3-b]pyridin-5-yl)-1H-benzo[d]imidazole] were, in that order, 0.049 µM and 0.049 µM.
The matching figures for `Cc1cc(C2CCN(C3CCN(CC(C)C)CC3)CC2)cc2[nH]c(-c3cccc4cccnc34)nc12` [Example 82, 8-(6-(1′-isobutyl-[1,4′-bipiperidin]-4-yl)-4-methyl-1H-benzo[d]imidazol-2-yl)quinoline]: 0.032 µM and 0.032 µM.
For `COc1ccc(-c2nc3c(F)cc(C4CCN(C5CCN(C(C)C)CC5)CC4)cc3[nH]2)cc1OC` [Example 83, 2-(3,4-dimethoxyphenyl)-4-fluoro-6-(1′-isopropyl-[1,4′-bipiperidin]-4-yl)-1H-benzo[d]imidazole], half-maximal inhibition under setting [1] (IC50) was put at 0.21 µM.
Take `Cc1c(C2CCN(C3CCN(C(C)C)CC3)CC2)ccc2nc(-c3ccc(S(C)(=O)=O)cc3)n(C)c12` [Example 119, 6-(1′-isopropyl-[1,4′-bipiperidin]-4-yl)-1,7-dimethyl-2-(4-(methylsulfonyl)phenyl)-1H-benzo[d]imidazole]: the IC50 worked out at 1.1 µM under setting [1] and 1.09 µM under setting [2].
The like results for `Cc1cc2nc(-c3ccc(S(C)(=O)=O)cc3)n(C)c2cc1C1CCN(C2CCN(C(C)C)CC2)CC1` [Example 120, 6-(1′-isopropyl-[1,4′-bipiperidin]-4-yl)-1,5-dimethyl-2-(4-(methylsulfonyl)phenyl)-1H-benzo[d]imidazole] were, in that order, 0.18 µM and 0.178 µM.
In turn, `COc1ccc(-c2nc3c(F)cc(C4CCN(C5CCN(CC(C)C)CC5)CC4)cc3[nH]2)cc1OC` [Example 127, 2-(3,4-dimethoxyphenyl)-4-fluoro-6-(1′-isobutyl-[1,4′-bipiperidin]-4-yl)-1H-benzo[d]imidazole] yielded an IC50 of 0.031 µM. Moreover, the IC50 under setting [2] was 0.031 µM.
Consider `COc1ccc(-c2nc3c(F)cc(C4CCN(C5CCN(C6CC6)CC5)CC4)cc3[nH]2)cc1OC` [Example 128, 6-(1′-cyclopropyl-[1,4′-bipiperidin]-4-yl)-2-(3,4-dimethoxyphenyl)-4-fluoro-1H-benzo[d]imidazole], for which the IC50 was determined as 0.27 µM. In addition, the IC50 under setting [2] was 0.268 µM.
Turning to `COc1ccc(-c2nc3cc(F)c(C4CCN(C5CCN(C(C)C)CC5)CC4)cc3[nH]2)cc1OC` [Example 129, 2-(3,4-dimethoxyphenyl)-5-fluoro-6-(1′-isopropyl-[1,4′-bipiperidin]-4-yl)-1H-benzo[d]imidazole], the IC50 stood at 0.19 µM. Further, the IC50 under setting [2] was 0.185 µM.
`COc1ccc(-c2nc3cc(F)c(C4CCN(C5CCN(CC(C)C)CC5)CC4)cc3[nH]2)cc1OC` [Example 130, 2-(3,4-dimethoxyphenyl)-5-fluoro-6-(1′-isobutyl-[1,4′-bipiperidin]-4-yl)-1H-benzo[d]imidazole] registered an IC50 of 0.022 µM. Moreover, the IC50 under setting [2] turned out to be 0.022 µM.
The compound `COc1ccc(-c2nc3cc(F)c(C4CCN(C5CCN(C6CC6)CC5)CC4)cc3[nH]2)cc1OC` [Example 131, 6-(1′-cyclopropyl-[1,4′-bipiperidin]-4-yl)-2-(3,4-dimethoxyphenyl)-5-fluoro-1H-benzo[d]imidazole] displayed an IC50 of 0.059 µM. For the same compound, the IC50 under setting [2] turned out to be 0.059 µM.
On to `COc1ccc(-c2nc3ccc(C4CCN(C5CCN(C(C)C)CC5)CC4)c(F)c3[nH]2)cc1OC` [Example 132, 2-(3,4-dimethoxyphenyl)-7-fluoro-6-(1′-isopropyl-[1,4′-bipiperidin]-4-yl)-1H-benzo[d]imidazole], for which the IC50 is 0.2 µM. For the same compound, the IC50 under setting [2] was found to be 0.202 µM.
The compound `COc1ccc(-c2nc3ccc(C4CCN(C5CCN(CC(C)C)CC5)CC4)c(F)c3[nH]2)cc1OC` [Example 133, 2-(3,4-dimethoxyphenyl)-7-fluoro-6-(1′-isobutyl-[1,4′-bipiperidin]-4-yl)-1H-benzo[d]imidazole] had an IC50 of 2.2 µM. For the same compound, under setting [2], the IC50 worked out at 2.2 µM.
With `Cc1cc(C2CCN(C3CCCN(C(C)C)CC3)CC2)cc2c1nc(-c1ccc(S(C)(=O)=O)cc1)n2C` (stereo not shown) [Example 134, 6-(1-(1-isopropylazepan-4-yl)piperidin-4-yl)-1,4-dimethyl-2-(4-(methylsulfonyl)phenyl)-1H-benzo[d]imidazole], the IC50 amounted to 0.021 µM. The IC50 under setting [2] is 0.02 µM.
For `Cc1cc(C2CCN(C3CCCN(C4CCC4)CC3)CC2)cc2c1nc(-c1ccc(S(C)(=O)=O)cc1)n2C` (stereo not shown) [Example 135, 6-(1-(1-cyclobutylazepan-4-yl)piperidin-4-yl)-1,4-dimethyl-2-(4-(methylsulfonyl)phenyl)-1H-benzo[d]imidazole], inhibition was half-maximal at 0.023 µM (IC50). For the same compound, the IC50 under setting [2] worked out at 0.023 µM.
As for `Cc1cc(C2CCN(C3CCCN(CC(C)C)CC3)CC2)cc2c1nc(-c1ccc(S(C)(=O)=O)cc1)n2C` (stereo not shown) [Example 136, 6-(1-(1-isobutylazepan-4-yl)piperidin-4-yl)-1,4-dimethyl-2-(4-(methylsulfonyl)phenyl)-1H-benzo[d]imidazole], the IC50 worked out at 0.14 µM. Moreover, the IC50 under setting [2] came to 0.136 µM.
